Measured values from US11439642B2 (Adverio Pharma GmbH, priority 2010, dated 2022).

System: conscious spontaneously hypertensive rats (SHR Okamoto)
Assay: Radiotelemetric measurement of blood pressure on conscious spontaneously hypertensive rats
Type: in vivo, rat
Description: A commercially available telemetry system from DATA SCIENCES INTERNATIONAL DSI, USA, is employed for the blood pressure measurements on conscious rats described below.
The system consists of 3 main components: • implantable transmitters (Physiotel® telemetry transmitter) • receivers (Physiotel® receiver) which are linked via a multiplexer (DSI Data Exchange Matrix) to a • data acquisition computer.
The telemetry system makes it possible to continuously record blood pressure, heart rate and body motions of conscious animals in their usual habitat.
The investigations are carried out on adult female spontaneously hypertensive rats (SHR Okamoto) with a body weight of >200 g. SHR/NCrl from the Okamoto Kyoto School of Medicine, 1963 were a cross of male Wistar Kyoto rats with highly elevated blood pressure and female rats having a slightly elevated blood pressure and at F13 handed over to the U.S. National Institutes of Health.
After transmitter implantation, the experimental animals are housed singly in type 3 Makrolon cages. They have free access to standard feed and water.
The day/night rhythm in the experimental laboratory is changed by the room lighting at 6.00 am and at 7.00 pm.
The telemetry transmitters TA11 PA-C40 used are surgically implanted under aseptic conditions in the experimental animals at least 14 days before the first experimental use. The animals instrumented in this way can be employed repeatedly after the wound has healed and the implant has settled.
For the implantation, the fasted animals are anaesthetized with pentobarbital (Nembutal, Sanofi: 50 mg/kg i.p.) and shaved and disinfected over a large area of their abdomens. After the abdominal cavity has been opened along the linea alba, the liquid-filled measuring catheter of the system is inserted into the descending aorta in the cranial direction above the bifurcation and fixed with tissue glue (VetBonD™, 3M). The transmitter housing is fixed intraperitoneally to the abdominal wall muscle, and layered closure of the wound is performed.
An antibiotic (Tardomyocel COMP, Bayer, 1 ml/kg s.c.) is administered postoperatively for prophylaxis of infection.
Unless indicated otherwise, the substances to be investigated are administered orally by gavage in each case to a group of animals (n=6). The test substances are dissolved in suitable solvent mixtures, or suspended in 0.5% strength Tylose, appropriate for an administration volume of 5 ml/kg of body weight.
A solvent-treated group of animals is employed as control.
The telemetry measuring unit present is configured for 24 animals. Each experiment is recorded under an experiment number (Vyear month day).
Each of the instrumented rats living in the system is assigned a separate receiving antenna (1010 Receiver, DSI).
The implanted transmitters can be activated externally by means of an incorporated magnetic switch and are switched to transmission in the run-up to the experiment. The emitted signals can be detected online by a data acquisition system (Dataquest™ A.R.T. for Windows, DSI) and be appropriately processed. The data are stored in each case in a file created for this purpose and bearing the experiment number.
In the standard procedure, the following are measured for 10-second periods in each case: • systolic blood pressure (SBP) • diastolic blood pressure (DBP) • mean arterial pressure (MAP) • heart rate (HR) • activity (ACT).
The acquisition of measured values is repeated under computer control at 5-minute intervals. The source data obtained as absolute value are corrected in the diagram with the currently measured barometric pressure (Ambient Pressure Reference Monitor; APR-1) and stored as individual data. Further technical details are given in the extensive documentation from the manufacturing company (DSI).
Unless indicated otherwise, the test substances are administered at 9.00 am on the day of the experiment. Following the administration, the parameters described above are measured over 24 hours. […]

[1] = 0.3 mg/kg p.o., 0 hours after substance administration
[2] = 0.3 mg/kg p.o., 1 hours after substance administration
[3] = 0.3 mg/kg p.o., 2 hours after substance administration
[4] = 0.3 mg/kg p.o., 3 hours after substance administration
[5] = 0.3 mg/kg p.o., 4 hours after substance administration
[6] = 0.3 mg/kg p.o., 5 hours after substance administration
[7] = 0.3 mg/kg p.o., 6 hours after substance administration
[8] = 0.3 mg/kg p.o., 7 hours after substance administration
[9] = 0.3 mg/kg p.o., 8 hours after substance administration
[10] = 0.3 mg/kg p.o., 9 hours after substance administration
[11] = 0.3 mg/kg p.o., 10 hours after substance administration
[12] = 0.3 mg/kg p.o., 11 hours after substance administration
[13] = 0.3 mg/kg p.o., 12 hours after substance administration
[14] = 0.3 mg/kg p.o., 13 hours after substance administration
[15] = 0.3 mg/kg p.o., 14 hours after substance administration
[16] = 0.3 mg/kg p.o., 15 hours after substance administration
[17] = 0.3 mg/kg p.o., 16 hours after substance administration
[18] = 0.3 mg/kg p.o., 17 hours after substance administration
[19] = 0.3 mg/kg p.o., 18 hours after substance administration
[20] = 0.3 mg/kg p.o., 19 hours after substance administration
[21] = 0.3 mg/kg p.o., 20 hours after substance administration
[22] = 0.3 mg/kg p.o., 21 hours after substance administration
[23] = 0.3 mg/kg p.o., 22 hours after substance administration
[24] = 0.3 mg/kg p.o., 23 hours after substance administration
[25] = 0.3 mg/kg p.o., 24 hours after substance administration

COC(=O)N(C)c1c(N)nc(-c2nn(Cc3ccccc3F)c3ncc(F)cc23)nc1N [Example 2]
mean blood pressure [1]: 161.3 mm Hg | mean blood pressure [2]: 145.7 mm Hg | mean blood pressure [3]: 130.5 mm Hg | mean blood pressure [4]: 121.5 mm Hg | mean blood pressure [5]: 123.1 mm Hg | mean blood pressure [6]: 121.6 mm Hg | mean blood pressure [7]: 123.8 mm Hg | mean blood pressure [8]: 124.4 mm Hg | mean blood pressure [9]: 128.7 mm Hg | mean blood pressure [10]: 133.7 mm Hg | mean blood pressure [11]: 139.2 mm Hg | mean blood pressure [12]: 137.9 mm Hg | mean blood pressure [13]: 143.0 mm Hg | mean blood pressure [14]: 146.0 mm Hg | mean blood pressure [15]: 149.2 mm Hg | mean blood pressure [16]: 152.3 mm Hg | mean blood pressure [17]: 155.5 mm Hg | mean blood pressure [18]: 156.3 mm Hg | mean blood pressure [19]: 157.3 mm Hg | mean blood pressure [20]: 156.9 mm Hg | mean blood pressure [21]: 156.3 mm Hg | mean blood pressure [22]: 149.3 mm Hg | mean blood pressure [23]: 147.1 mm Hg | mean blood pressure [24]: 153.1 mm Hg | mean blood pressure [25]: 152.3 mm Hg

COC(=O)Nc1c(N)nc(-c2nn(Cc3ccccc3F)c3ncc(F)cc23)nc1N [Example 1, Methyl {4,6-diamino-2-[5-fluoro-1-(2-fluorobenzyl)-1H-pyrazolo[3,4-b]pyridin-3-yl]pyrimidin-5-yl}carbamate]
mean blood pressure [1]: 151.0 mm Hg | mean blood pressure [2]: 148.4 mm Hg | mean blood pressure [3]: 136.4 mm Hg | mean blood pressure [4]: 130.6 mm Hg | mean blood pressure [5]: 129.1 mm Hg | mean blood pressure [6]: 132.8 mm Hg | mean blood pressure [7]: 125.6 mm Hg | mean blood pressure [8]: 131.9 mm Hg | mean blood pressure [9]: 131.8 mm Hg | mean blood pressure [10]: 138.5 mm Hg | mean blood pressure [11]: 138.3 mm Hg | mean blood pressure [12]: 138.9 mm Hg | mean blood pressure [13]: 137.7 mm Hg | mean blood pressure [14]: 142.9 mm Hg | mean blood pressure [15]: 144.5 mm Hg | mean blood pressure [16]: 143.8 mm Hg | mean blood pressure [17]: 146.3 mm Hg | mean blood pressure [18]: 141.8 mm Hg | mean blood pressure [19]: 138.4 mm Hg | mean blood pressure [20]: 149.2 mm Hg | mean blood pressure [21]: 145.1 mm Hg | mean blood pressure [22]: 142.1 mm Hg | mean blood pressure [23]: 141.8 mm Hg | mean blood pressure [24]: 143.6 mm Hg | mean blood pressure [25]: 135.1 mm Hg | mean blood pressure (3.0 mg/kg p.o., 0 hours after substance administration): 149.0 mm Hg | mean blood pressure (3.0 mg/kg p.o., 1 hours after substance administration): 129.3 mm Hg | mean blood pressure (3.0 mg/kg p.o., 2 hours after substance administration): 111.1 mm Hg | mean blood pressure (3.0 mg/kg p.o., 3 hours after substance administration): 106.0 mm Hg | mean blood pressure (3.0 mg/kg p.o., 4 hours after substance administration): 107.8 mm Hg | mean blood pressure (3.0 mg/kg p.o., 5 hours after substance administration): 109.3 mm Hg | mean blood pressure (3.0 mg/kg p.o., 6 hours after substance administration): 106.8 mm Hg | mean blood pressure (3.0 mg/kg p.o., 7 hours after substance administration): 110.9 mm Hg | mean blood pressure (3.0 mg/kg p.o., 8 hours after substance administration): 109.8 mm Hg | mean blood pressure (3.0 mg/kg p.o., 9 hours after substance administration): 114.3 mm Hg | mean blood pressure (3.0 mg/kg p.o., 10 hours after substance administration): 114.5 mm Hg | mean blood pressure (3.0 mg/kg p.o., 11 hours after substance administration): 115.6 mm Hg | mean blood pressure (3.0 mg/kg p.o., 12 hours after substance administration): 118.8 mm Hg | mean blood pressure (3.0 mg/kg p.o., 13 hours after substance administration): 120.4 mm Hg | mean blood pressure (3.0 mg/kg p.o., 14 hours after substance administration): 122.8 mm Hg | mean blood pressure (3.0 mg/kg p.o., 15 hours after substance administration): 125.8 mm Hg | mean blood pressure (3.0 mg/kg p.o., 16 hours after substance administration): 131.5 mm Hg | mean blood pressure (3.0 mg/kg p.o., 17 hours after substance administration): 124.7 mm Hg | mean blood pressure (3.0 mg/kg p.o., 18 hours after substance administration): 129.6 mm Hg | mean blood pressure (3.0 mg/kg p.o., 19 hours after substance administration): 135.6 mm Hg | mean blood pressure (3.0 mg/kg p.o., 20 hours after substance administration): 135.2 mm Hg | mean blood pressure (3.0 mg/kg p.o., 21 hours after substance administration): 129.3 mm Hg | mean blood pressure (3.0 mg/kg p.o., 22 hours after substance administration): 128.3 mm Hg | mean blood pressure (3.0 mg/kg p.o., 23 hours after substance administration): 130.2 mm Hg | mean blood pressure (3.0 mg/kg p.o., 24 hours after substance administration): 130.8 mm Hg
